# Laboratory results as given in paper PMC9181188 (International Journal of Molecular Sciences, 2022).
# Tested on: M. tuberculosis Spec. 210 (Multidrug-Resistant)
# Experiment: microbe, parasite or virus in culture
# Format: cell-based, Mycobacterium tuberculosis
# Conditions: Mycobacterium tuberculosis, 336 h, read-out: MIC M. tuberculosis Spec. 210 (Multidrug-Resistant)
row,SMILES,MIC
1,"C/C=C/C(=O)N1CCCC2CN(c3c(F)cc4c(=O)c(C(=O)O)cn(C5CC5)c4c3OC)CC21 (stereo not drawn) [Compound 1m, 7-{1-(E)-But-2-enoyl-octahydro-pyrrolo[3,4-b]pyridin-6-yl}-1-cyclopropyl-6-fluoro-8-methoxy-4-oxo-1,4-dihydro-quinoline-3-carboxylic acid]",64 µg/mL
2,"COc1c(N2CC3CCCN(C(=O)/C=C(\C)CCC=C(C)C)C3C2)c(F)cc2c(=O)c(C(=O)O)cn(C3CC3)c12 (stereo not drawn) [Compound 3m, 1-Cyclopropyl-7-{1-(2E)-(3,7-dimethyl-octa-2,6-dienoyl)-octahydro-pyrrolo[3,4-b]pyridin-6-yl}-6-fluoro-8-methoxy-4-oxo-1,4-dihydro-quinoline-3-carboxylic acid]",128 µg/mL
3,"CCCCCCCC/C=C\CCCCCCCC(=O)N1CCCC2CN(c3c(F)cc4c(=O)c(C(=O)O)cn(C5CC5)c4c3OC)CC21 (stereo not drawn) [Compound 4m, 1-Cyclopropyl-6-fluoro-8-methoxy-7-{1-(Z)-octadec-9-enoyl-octahydro-pyrrolo[3,4-b]pyridin-6-yl}-4-oxo-1,4-dihydro-quinoline-3-carboxylic acid]",> 512 µg/mL
4,"CCCCCCCC/C=C/CCCCCCCC(=O)N1CCCC2CN(c3c(F)cc4c(=O)c(C(=O)O)cn(C5CC5)c4c3OC)CC21 (stereo not drawn) [Compound 5m, 1-Cyclopropyl-6-fluoro-8-methoxy-7-{1-(E)-octadec-9-enoyl-octahydro-pyrrolo[3,4-b]pyridin-6-yl}-4-oxo-1,4-dihydro-quinoline-3-carboxylic acid]",256 µg/mL
5,"CC/C=C\C/C=C\C/C=C\CCCCCCCC(=O)N1CCCC2CN(c3c(F)cc4c(=O)c(C(=O)O)cn(C5CC5)c4c3OC)CC21 (stereo not drawn) [Compound 6m, 1-Cyclopropyl-6-fluoro-8-methoxy-7-{1-(9Z,12Z,15Z)-octadeca-9,12,15-trienoyl-octahydro-pyrrolo[3,4-b]pyridin-6-yl}-4-oxo-1,4-dihydro-quinoline-3-carboxylic acid]",256 µg/mL
6,"CCCCCCCC/C=C\CCCCCCCCCCCC(=O)N1CCCC2CN(c3c(F)cc4c(=O)c(C(=O)O)cn(C5CC5)c4c3OC)CC21 (stereo not drawn) [Compound 7m, 1-Cyclopropyl-7-{1-(Z)-docos-13-enoyl-octahydro-pyrrolo[3,4-b]pyridin-6-yl}-6-fluoro-8-methoxy-4-oxo-1,4-dihydro-quinoline-3-carboxylic acid]",> 512 µg/mL
7,"CC/C=C\C/C=C\C/C=C\C/C=C\C/C=C\C/C=C\CCC(=O)N1CCCC2CN(c3c(F)cc4c(=O)c(C(=O)O)cn(C5CC5)c4c3OC)CC21 (stereo not drawn) [Compound 8m, 1-Cyclopropyl-7-{1-(4Z,7Z,10Z,13Z,16Z,19Z)-docosa-4,7,10,13,16,19-hexaenoyl-octahydro-pyrrolo[3,4-b]pyridin-6-yl}-6-fluoro-8-methoxy-4-oxo-1,4-dihydro-quinoline-3-carboxylic acid]",2 µg/mL
8,"CCCCCCCCCCCCCCCC(=O)N1CCC[C@H]2CN(c3c(F)cc4c(=O)c(C(=O)O)cn(C5CC5)c4c3OC)C[C@H]21 [Compound 9m, 1-Cyclopropyl-6-fluoro-7-(1-hexadecanoyl-octahydro-pyrrolo[3,4-b]pyridin-6-yl)-8-methox-4-oxo-1,4-dihydro-quinoline-3-carboxylic acid]",> 512 µg/mL
9,"CCCCC/C=C\C/C=C\CCCCCCCC(=O)N1CCCC2CN(c3c(F)cc4c(=O)c(C(=O)O)cn(C5CC5)c4c3OC)CC21 (stereo not drawn) [Compound 11m, 1-Cyclopropyl-6-fluoro-8-methoxy-7-{1-(9Z,12Z)-octadeca-9,12-dienoyl-octahydropyrrolo-[3,4-b]pyridin-6-yl)-4-oxo-1,4-dihydro-quinoline-3-carboxylic acid]",256 µg/mL
10,"CCCCC/C=C\C/C=C\C/C=C\C/C=C\CCCC(=O)N1CCCC2CN(c3c(F)cc4c(=O)c(C(=O)O)cn(C5CC5)c4c3OC)CC21 (stereo not drawn) [Compound 13m, 1-Cyclopropyl-6-fluoro-7-{1-(5Z,8Z,11Z,14Z)-icosa-5,8,11,14-tetraenoyl-octahydro-pyrrolo[3,4-b]pyridin-6-yl}-8-methoxy-4-oxo-1,4-dihydro-quinoline-3-carboxylic acid]",2 µg/mL
11,"CCCCCCCC(=O)N1CCCC2CN(c3c(F)cc4c(=O)c(C(=O)O)cn(C5CC5)c4c3OC)CC21 (stereo not drawn) [Compound 15m, 1-Cyclopropyl-6-fluoro-8-methoxy-7-(1-octanoyl-octahydro-pyrrolo[3,4-b]pyridin-6-yl)-4-oxo-1,4-dihydro-quinoline-3-carboxylic acid]",128 µg/mL
12,"CCCCCCCCCCCCCCCCCC(=O)N1CCCC2CN(c3c(F)cc4c(=O)c(C(=O)O)cn(C5CC5)c4c3OC)CC21 (stereo not drawn) [Compound 16m, 1-Cyclopropyl-6-fluoro-8-methoxy-7-(1-octadecanoyl-octahydro-pyrrolo[3,4-b]pyridin-6-yl)-4-oxo-1,4-dihydro-quinoline-3-carboxylic acid]",> 512 µg/mL
13,"CC[C@@H](CO)NCCN[C@@H](CC)CO [Ethambutol (EMB), Ethambutol, reference compound]",32 µg/mL
14,"NNC(=O)c1ccncc1 [Isoniazid (INH), Isoniazid, reference compound]",16 µg/mL
15,"CO[C@H]1/C=C/O[C@@]2(C)Oc3c(C)c(O)c4c(O)c(c(/C=N/N5CCN(C)CC5)c(O)c4c3C2=O)NC(=O)/C(C)=C\C=C\[C@H](C)[C@H](O)[C@@H](C)[C@@H](O)[C@@H](C)[C@H](OC(C)=O)[C@@H]1C [Rifampicin (RMP), Rifampicin, reference compound]",32 µg/mL
16,"[H]/N=C(/N)N[C@H]1[C@H](O)[C@@H](O)[C@H](O[C@@H]2O[C@@H](C)[C@](O)(C=O)[C@H]2O[C@@H]2O[C@@H](CO)[C@H](O)[C@@H](O)[C@@H]2NC)[C@@H](N/C(N)=N\[H])[C@@H]1O [Streptomycin (SM), Streptomycin, reference compound]",16 µg/mL

# Same assay, conditions: multidrug-resistant Spec. 210, versus INH, RMP, SM, EMB
row,SMILES,fold higher activity than referential tuberculostatics
1,"CC/C=C\C/C=C\C/C=C\C/C=C\C/C=C\C/C=C\CCC(=O)N1CCCC2CN(c3c(F)cc4c(=O)c(C(=O)O)cn(C5CC5)c4c3OC)CC21 (stereo not drawn) [Compound 8m, 1-Cyclopropyl-7-{1-(4Z,7Z,10Z,13Z,16Z,19Z)-docosa-4,7,10,13,16,19-hexaenoyl-octahydro-pyrrolo[3,4-b]pyridin-6-yl}-6-fluoro-8-methoxy-4-oxo-1,4-dihydro-quinoline-3-carboxylic acid]",8–16 fold
2,"CCCCC/C=C\C/C=C\C/C=C\C/C=C\CCCC(=O)N1CCCC2CN(c3c(F)cc4c(=O)c(C(=O)O)cn(C5CC5)c4c3OC)CC21 (stereo not drawn) [Compound 13m, 1-Cyclopropyl-6-fluoro-7-{1-(5Z,8Z,11Z,14Z)-icosa-5,8,11,14-tetraenoyl-octahydro-pyrrolo[3,4-b]pyridin-6-yl}-8-methoxy-4-oxo-1,4-dihydro-quinoline-3-carboxylic acid]",8–16 fold
